Source: patent publication US20070010671A1, “Novel quinazoline derivatives and methods of treatment related to the use thereof” (priority 2003, published 2007)
Where a name gives a salt, the structure may show the parent alone.

Target: MCH receptor (Homo sapiens, UniProt Q99705)
Experiment: High throughput functional screening FLIPR/FDSS6000: inhibition of MCH-evoked intracellular Ca2+ changes
Type: cell-based
Settings: antagonist activity, 50 nM of MCH, FLIPR or FDSS; read-out: IC50
Procedure, shortened: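 Seed cells the day before, then load them with Fluo4-AM for one hour at 37° C and wash in HEPES-buffered HBSS, pH 7.4. Add compound for 3 min, then stimulate with 50 nM MCH. Monitor the calcium transient for 290 s.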

SMILES	IC50 [µM]
Cc1cccc(Oc2ncccc2C(=O)N[C@H]2CC[C@@H](Nc3nc(N(C)C)c4ccccc4n3)CC2)c1 [Example 898, N-(cis-4-{[4-(Dimethylamino)quinazolin-2-yl]amino}cyclohexyl)-2-(3-methylphenoxy)-nicotinamide trifluoroacetate]	0.0033
COc1ccc(NC(=O)N[C@H]2CC[C@@H](Nc3nc(N(C)C)c4ccccc4n3)CC2)cc1OC [Example 1, 1-(3,4-Dimethoxy)-phenyl)-3-[cis-4-(4-dimethylamino-quinazolin-2-ylamino)-cyclohexyl-urea hydrochloride]	0.013

Same assay, conditions: class by percent of control at 10^-7 M or IC50

SMILES	class
CN(C)c1nc(N[C@H]2CC[C@@H](CNC(=S)Nc3c(F)cc(F)cc3F)CC2)nc2ccccc12 [compound 671]	3 (Class 3: The value of percent of control at 10^−7 M was more than 60% or the value of IC50 was more than 200 nM.)
CN(C)c1nc(N[C@H]2CC[C@@H](NC(=O)Nc3ccc(OC(F)(F)F)cc3)CC2)nc2ccccc12 [compound 332]	3 (Class 3: The value of percent of control at 10^−7 M was more than 60% or the value of IC50 was more than 200 nM.)
Cc1cc(C)c(NC(=S)N[C@H]2CC[C@@H](Nc3nc(N(C)C)c4ccccc4n3)CC2)cc1C [compound 293, N-(cis-4-{[4-(dimethylamino)quinazolin-2-yl]amino}cyclohexyl)-N′-(2,4,5-trimethylphenyl)thiourea]	1 (Class 1: The value of percent of control at 10^−7 M was less than 40% or the value of IC50 was less than 50 nM.)
COc1cc(OC)c(NC(=S)N[C@H]2CC[C@@H](Nc3nc(N(C)C)c4ccccc4n3)CC2)cc1Cl [compound 324, N-(5-chloro-2,4-dimethoxyphenyl)-N′-(cis-4-{[4-(dimethylamino)quinazolin-2-yl]amino}cyclohexyl)thiourea]	1 (Class 1: The value of percent of control at 10^−7 M was less than 40% or the value of IC50 was less than 50 nM.)
COc1ccc(OC)c(CCNC(=S)NC[C@H]2CC[C@@H](Nc3nc(N(C)C)c4ccccc4n3)CC2)c1 [compound 720]	3 (Class 3: The value of percent of control at 10^−7 M was more than 60% or the value of IC50 was more than 200 nM.)
CN(C)c1nc(N[C@H]2CC[C@@H](CNC(=S)Nc3ccc(Br)cc3Cl)CC2)nc2ccccc12 [compound 657]	3 (Class 3: The value of percent of control at 10^−7 M was more than 60% or the value of IC50 was more than 200 nM.)
Cc1onc(-c2ccccc2)c1NC(=S)N[C@H]1CC[C@@H](Nc2nc(N(C)C)c3ccccc3n2)CC1 [compound 402, N-(cis-4-{[4-(dimethylamino)quinazolin-2-yl]amino}cyclohexyl)-N′-(5-methyl-3-phenylisoxazol-4-yl)thiourea]	1 (Class 1: The value of percent of control at 10^−7 M was less than 40% or the value of IC50 was less than 50 nM.)
COC(=O)c1ccc(NC(=S)NC[C@H]2CC[C@@H](Nc3nc(N(C)C)c4ccccc4n3)CC2)cc1 [compound 702]	3 (Class 3: The value of percent of control at 10^−7 M was more than 60% or the value of IC50 was more than 200 nM.)
CCCCOc1ccc(NC(=O)NC[C@H]2CC[C@@H](Nc3nc(N(C)C)c4ccccc4n3)CC2)cc1 [compound 560]	3 (Class 3: The value of percent of control at 10^−7 M was more than 60% or the value of IC50 was more than 200 nM.)
COc1ccc(CNC(=S)NC[C@H]2CC[C@@H](Nc3nc(N(C)C)c4ccccc4n3)CC2)cc1OC [compound 728]	3 (Class 3: The value of percent of control at 10^−7 M was more than 60% or the value of IC50 was more than 200 nM.)
CN(C)c1nc(N[C@H]2CC[C@@H](NC(=S)Nc3ccccc3F)CC2)nc2ccccc12 [compound 218]	3 (Class 3: The value of percent of control at 10^−7 M was more than 60% or the value of IC50 was more than 200 nM.)
CN(C)c1nc(N[C@H]2CC[C@@H](NC(=S)NCCCCc3ccccc3)CC2)nc2ccccc12 [compound 374]	2 (Class 2: The value of percent of control at 10^−7 M was from 40% to 60% or the value of IC50 was from 50 nM to 200 nM.)
CN(C)c1nc(N[C@H]2CC[C@@H](CNC(=S)NCc3ccccc3F)CC2)nc2ccccc12 [compound 724]	3 (Class 3: The value of percent of control at 10^−7 M was more than 60% or the value of IC50 was more than 200 nM.)
CN(C)c1ccc(NC(=S)N[C@H]2CC[C@@H](Nc3nc(N(C)C)c4ccccc4n3)CC2)cc1 [compound 386]	3 (Class 3: The value of percent of control at 10^−7 M was more than 60% or the value of IC50 was more than 200 nM.)
Cc1ccc(CNC(=S)NC[C@H]2CC[C@@H](Nc3nc(N(C)C)c4ccccc4n3)CC2)cc1 [compound 704]	3 (Class 3: The value of percent of control at 10^−7 M was more than 60% or the value of IC50 was more than 200 nM.)
Cc1cc(C)cc(NC(=S)NC[C@H]2CC[C@@H](Nc3nc(N(C)C)c4ccccc4n3)CC2)c1 [compound 684]	3 (Class 3: The value of percent of control at 10^−7 M was more than 60% or the value of IC50 was more than 200 nM.)
CN(C)c1nc(N[C@H]2CC[C@@H](CNC(=S)Nc3cccc(OCc4ccccc4)c3)CC2)nc2ccccc12 [compound 685]	3 (Class 3: The value of percent of control at 10^−7 M was more than 60% or the value of IC50 was more than 200 nM.)
Cc1ccc(NC(=S)N[C@H]2CC[C@@H](Nc3nc(N(C)C)c4ccccc4n3)CC2)c(Br)c1 [compound 252]	1 (Class 1: The value of percent of control at 10^−7 M was less than 40% or the value of IC50 was less than 50 nM.)
Cc1cc(NC(=O)NC[C@H]2CC[C@@H](Nc3nc(N(C)C)c4ccccc4n3)CC2)c([N+](=O)[O-])cc1C [compound 538]	2 (Class 2: The value of percent of control at 10^−7 M was from 40% to 60% or the value of IC50 was from 50 nM to 200 nM.)

Same assay, conditions: class by percent of control at 10^-7 M or by IC50; read-out: class

IC50 [µM]	SMILES
> 0.2	CN(C)c1nc(N[C@H]2CC[C@@H](NC(=S)NCC3CCCO3)CC2)nc2ccccc12 (relative stereo) [compound 196]
> 0.2	CN(C)c1nc(N[C@H]2CC[C@@H](NC(=S)Nc3cc(F)ccc3F)CC2)nc2ccccc12 [compound 167]
> 0.2	CN(C)c1nc(N[C@H]2CC[C@@H](CNC(=S)Nc3ccc(/N=N/c4ccccc4)cc3)CC2)nc2ccccc12 [compound 812]
0.05 to 0.2	CN(C)c1nc(N[C@H]2CC[C@@H](NC(=O)OCc3ccccc3Cl)CC2)nc2ccccc12 [compound 863]
> 0.2	CN(C)c1nc(N[C@H]2CC[C@@H](NC(=O)Nc3ccc(Cl)c(C(F)(F)F)c3)CC2)nc2ccccc12 [compound 148]
0.05 to 0.2	CN(C)c1nc(N[C@H]2CC[C@@H](CNC(=O)OCc3ccccc3)CC2)nc2ccccc12 [compound 878]
0.05 to 0.2	CN(C)c1nc(N[C@H]2CC[C@@H](NC(=O)NC3CCCC3)CC2)nc2ccccc12 [compound 843, N-cyclophenyl-N′-(cis-4-{[4-(dimethylamino)quinazolin-2-yl]amino}cyclohexyl)urea]
> 0.2	CN(C)c1nc(N[C@H]2CC[C@@H](NC(=S)Nc3c(Cl)cccc3Cl)CC2)nc2ccccc12 [compound 171]
> 0.2	CC1CCC(C(C)C)C(OC(=O)NCC2CCC(Nc3nc(N(C)C)c4ccccc4n3)CC2)C1 (stereo not shown) [compound 880]
> 0.2	CC(=O)c1cccc(NC(=S)N[C@H]2CC[C@@H](Nc3nc(N(C)C)c4ccccc4n3)CC2)c1 [compound 153]

SMILES	IC50 [µM]
CN(C)c1nc(N[C@H]2CC[C@@H](CNC(=O)Oc3cccc(C(F)(F)F)c3)CC2)nc2ccccc12 [compound 869]	> 0.2

Same assay, conditions: class by percent of control at 10^−7 M or by IC50; read-out: class

IC50 [µM]	SMILES
< 0.05	CN(C)c1nc(N[C@H]2CC[C@@H](NC(=O)c3ccc(Oc4ccc(Cl)c(F)c4)nc3)CC2)nc2ccccc12 [Example 1069, 6-(4-chloro-3-fluorophenoxy)-N-(cis-4-{[4-(dimethylamino)quinazolin-2-yl]amino}cyclohexyl)nicotinamide]
< 0.05	CN(C)c1nc(N[C@H]2CC[C@@H](C(=O)NCc3cc(C(F)(F)F)ccc3Cl)CC2)nc2ccccc12 [Example 1183, cis-N-[2-chloro-5-(trifluoromethyl)benzyl]-4-{[4-(dimethylamino)quinazolin-2-yl]amino}cyclohexanecarboxamide]
> 0.2	CN(C)c1nc(N[C@H]2CC[C@@H](NCc3ccc(F)c(F)c3)C2)nc2ccccc12 [Example 1049, N2-{(1S,3R)-3-[(3,4-difluorobenzyl)amino]cyclopentyl}-N4,N4-dimethylquinazoline-2,4-diamine]
< 0.05	CN(C)c1nc(N[C@H]2CC[C@@H](C(=O)NCc3c(F)ccc(F)c3F)CC2)nc2ccccc12 [Example 1172, cis-4-{[4-(dimethylamino)quinazolin-2-yl]amino}-N-(2,3,6-trifluorobenzy)cyclohexanecarboxamide]
< 0.05	CN(C)c1nc(N[C@H]2CC[C@@H](NC(=O)CNc3ccc(Cl)cc3)CC2)nc2ccccc12 [Example 1089, N2-(4-chlorophenyl)-N-(cis-4-{[4-(dimethylamino)quinazolin-2-yl]amino}cyclohexyl)glycinamide]
< 0.05	CN(C)c1nc(N[C@H]2CC[C@@H](C(=O)NCc3cc(F)ccc3F)CC2)nc2ccccc12 [Example 1158, cis-N-(2,5-difluorobenzyl)-4-{[4-(dimethylamino)quinazolin-2-yl]amino}cyclohexanecarboxamide]
< 0.05	CN(C)c1nc(N[C@H]2CC[C@@H](C(=O)NCc3ccc(Cl)cc3)CC2)nc2ccccc12 [Example 1155, cis-N-(4-chlorobenzyl)-4-{[4-(dimethylamino)quinazolin-2-yl]amino}cyclohexanecarboxamide]
< 0.05	CN(C)c1nc(N[C@H]2CC[C@@H](C(=O)NCc3c(F)ccc(Cl)c3F)CC2)nc2ccccc12 [Example 1147, cis-N-(3-chloro-2,6-difluorobenzyl)-4-{[4-(dimethylamino)quinazolin-2-yl]amino}cyclohexanecarboxamide]
